Source: ChEMBL document CHEMBL3045364, “Synthesis, structure, and estrogenic activity of 2- and 3-substituted 2,3-dihydro-4H-1-benzopyran-4-ones” (2013)
The source made the active and inactive calls. No cut-off for these calls is given here.

How the values were obtained:
[1] = biological target: T1, Estrogen receptor (Homo sapiens) (UniProt P03372); test: Displacement of [3H]E2 from Homo sapiens (human) recombinant ER-alpha by HAP binding assay
T1 sequence (whole entry): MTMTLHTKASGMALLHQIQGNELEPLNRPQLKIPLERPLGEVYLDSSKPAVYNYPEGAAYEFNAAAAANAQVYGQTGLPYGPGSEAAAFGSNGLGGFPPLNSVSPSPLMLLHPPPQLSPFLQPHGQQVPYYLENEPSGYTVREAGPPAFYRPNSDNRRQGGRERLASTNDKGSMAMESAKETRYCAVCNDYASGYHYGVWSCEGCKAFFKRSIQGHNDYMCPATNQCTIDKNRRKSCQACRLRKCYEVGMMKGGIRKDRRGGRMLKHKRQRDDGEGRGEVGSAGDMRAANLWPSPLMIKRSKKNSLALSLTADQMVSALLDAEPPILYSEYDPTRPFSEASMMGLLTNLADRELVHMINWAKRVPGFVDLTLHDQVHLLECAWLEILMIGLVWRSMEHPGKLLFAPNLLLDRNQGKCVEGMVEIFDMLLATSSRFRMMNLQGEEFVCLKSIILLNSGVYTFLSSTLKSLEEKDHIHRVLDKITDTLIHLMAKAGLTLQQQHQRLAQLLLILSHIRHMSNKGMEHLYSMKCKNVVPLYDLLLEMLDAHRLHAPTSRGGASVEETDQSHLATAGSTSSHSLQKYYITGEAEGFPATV

MVLN [2] = test: Estrogenic activity in Homo sapiens (human) MVLN cells assessed as induction of ERE-dependent transcription at 1 uM after 24 hr by luciferase reporter gene assay; assay type: functional
MVLN [3] = test: Estrogenic activity in Homo sapiens (human) MVLN cells assessed as induction of ERE-dependent transcription at 10 uM after 24 hr by luciferase reporter gene assay in presence of 0.1 uM antiestrogen, fulvestrant; assay type: functional, cell-based
MVLN [4] = test: Estrogenic activity in Homo sapiens (human) MVLN cells assessed as induction of ERE-dependent transcription at 10 uM after 24 hr by luciferase reporter gene assay; assay type: functional, cell-based

| Compound | inhibition [1] | Activity (MVLN [2]) | Activity (MVLN [3]) | Activity (MVLN [4]) |
| --- | --- | --- | --- | --- |
| COc1ccc2c(c1)OC1(CCC(C(C)(C)C)CC1)CC2=O (stereo not drawn) | inactive | – | – | – |
| O=C1/C(=C/c2ccccc2)COc2ccccc21 | inactive | inactive | – | – |
| COc1ccc2c(c1)OC1(CCCCC1)CC2=O | inactive | inactive | – | – |
| O=C1/C(=C/c2ccc(O)cc2)COc2ccccc21 | inactive | 236% | inactive | Active |
| COc1cccc(/C=C2\COc3ccccc3C2=O)c1 | inactive | 243% | inactive | Active |

Continued, in another order:

| inhibition [1] | Compound | Activity (MVLN [2]) | Activity (MVLN [3]) | Activity (MVLN [4]) |
| --- | --- | --- | --- | --- |
| inactive | COc1cc(OC)c(/C=C2\COc3ccccc3C2=O)c(OC)c1 | 134% | – | – |
| inactive | CN(C)c1ccc(/C=C2\COc3ccccc3C2=O)cc1 | 145% | – | – |
| inactive | O=C1CC2(CCCCC2)Oc2cc(O)ccc21 | 279% | inactive | Active |
| inactive | Cc1ccc(/C=C2\COc3ccccc3C2=O)cc1 | – | – | – |
| inactive | COc1ccc2c(c1)OC1(CCC(c3ccccc3)CC1)CC2=O (stereo not drawn) | – | – | – |
